Experimental data as given in patent US20230066011A1, “PYRROLOPYRIMIDINE DERIVATIVE, AND PHARMACEUTICAL COMPOSITION FOR PREVENTING OR TREATING PROTEIN KINASE-RELATED DISEASE COMPRISING SAME AS ACTIVE INGREDIENT” (VORONOI CO., LTD., priority 2019, published 2023).
Blank lines part the entries; values can stand above or below the compound they belong to.

What was measured:
CSNK1D = target: T1, CSNK1D (Homo sapiens, UniProt P48730); test: ScanMAX Kinase analysis panel, CSNK1D; assay type: binding; settings: 1 μM in DMSO; <35% considered inhibitory; read-out: percent control (% control), CSNK1D
T1 construct: purchased DiscoverX Corp. (ScanMAX Kinase analysis panel, service)
T1 sequence (P48730 whole entry): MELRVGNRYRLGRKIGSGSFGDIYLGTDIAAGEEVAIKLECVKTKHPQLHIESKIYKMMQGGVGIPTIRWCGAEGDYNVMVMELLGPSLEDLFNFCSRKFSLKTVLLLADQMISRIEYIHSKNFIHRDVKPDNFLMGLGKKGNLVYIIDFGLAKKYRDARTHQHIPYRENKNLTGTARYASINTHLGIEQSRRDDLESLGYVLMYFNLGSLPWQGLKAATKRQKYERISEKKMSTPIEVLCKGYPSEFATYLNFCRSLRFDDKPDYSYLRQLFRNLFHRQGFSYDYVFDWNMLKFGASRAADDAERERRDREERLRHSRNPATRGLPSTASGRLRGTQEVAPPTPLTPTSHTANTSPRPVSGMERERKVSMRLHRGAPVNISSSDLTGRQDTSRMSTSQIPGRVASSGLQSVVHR
Experimental: Specifically, the enzyme (kinase) selectivity of Example compounds 238, 361, 411, 157, 161, 228, and 158 selected from the Example compounds of the present invention was determined by commissioning DiscoverX Corp., and an experiment was performed using a ScanMAX™ Kinase analysis panel. In this case, a concentration of the drug with which the enzymes were treated was 1 μM in DMSO, and the percent control (% control) was defined in the same manner as in the following Expression 1.
(Example Compound−Positive Control)/(Negative Control−Positive Control)×100 [Expression 1]
wherein the positive control represents a compound having a percent control of 0%, and the negative control represents DMSO having a percent control of 100%. For the enzyme selectivity of the present invention, it was considered that the compound has an inhibitory activity on each of the enzymes when the percent control for the corresponding enzyme was <35% (i. e., less than 35%).

LRRK2 = LRRK2 (Homo sapiens, UniProt Q5S007); test: Kinase HotSpot service (Reaction Biology Corporation), LRRK2; assay type: biochemical; parameters: purchased DiscoverX Corp. (ScanMAX Kinase analysis panel, service); settings: ATP 10 uM, read-out: LRRK2 IC50 (values indicated by *)
Chain of LRRK2 (Q5S007 whole entry): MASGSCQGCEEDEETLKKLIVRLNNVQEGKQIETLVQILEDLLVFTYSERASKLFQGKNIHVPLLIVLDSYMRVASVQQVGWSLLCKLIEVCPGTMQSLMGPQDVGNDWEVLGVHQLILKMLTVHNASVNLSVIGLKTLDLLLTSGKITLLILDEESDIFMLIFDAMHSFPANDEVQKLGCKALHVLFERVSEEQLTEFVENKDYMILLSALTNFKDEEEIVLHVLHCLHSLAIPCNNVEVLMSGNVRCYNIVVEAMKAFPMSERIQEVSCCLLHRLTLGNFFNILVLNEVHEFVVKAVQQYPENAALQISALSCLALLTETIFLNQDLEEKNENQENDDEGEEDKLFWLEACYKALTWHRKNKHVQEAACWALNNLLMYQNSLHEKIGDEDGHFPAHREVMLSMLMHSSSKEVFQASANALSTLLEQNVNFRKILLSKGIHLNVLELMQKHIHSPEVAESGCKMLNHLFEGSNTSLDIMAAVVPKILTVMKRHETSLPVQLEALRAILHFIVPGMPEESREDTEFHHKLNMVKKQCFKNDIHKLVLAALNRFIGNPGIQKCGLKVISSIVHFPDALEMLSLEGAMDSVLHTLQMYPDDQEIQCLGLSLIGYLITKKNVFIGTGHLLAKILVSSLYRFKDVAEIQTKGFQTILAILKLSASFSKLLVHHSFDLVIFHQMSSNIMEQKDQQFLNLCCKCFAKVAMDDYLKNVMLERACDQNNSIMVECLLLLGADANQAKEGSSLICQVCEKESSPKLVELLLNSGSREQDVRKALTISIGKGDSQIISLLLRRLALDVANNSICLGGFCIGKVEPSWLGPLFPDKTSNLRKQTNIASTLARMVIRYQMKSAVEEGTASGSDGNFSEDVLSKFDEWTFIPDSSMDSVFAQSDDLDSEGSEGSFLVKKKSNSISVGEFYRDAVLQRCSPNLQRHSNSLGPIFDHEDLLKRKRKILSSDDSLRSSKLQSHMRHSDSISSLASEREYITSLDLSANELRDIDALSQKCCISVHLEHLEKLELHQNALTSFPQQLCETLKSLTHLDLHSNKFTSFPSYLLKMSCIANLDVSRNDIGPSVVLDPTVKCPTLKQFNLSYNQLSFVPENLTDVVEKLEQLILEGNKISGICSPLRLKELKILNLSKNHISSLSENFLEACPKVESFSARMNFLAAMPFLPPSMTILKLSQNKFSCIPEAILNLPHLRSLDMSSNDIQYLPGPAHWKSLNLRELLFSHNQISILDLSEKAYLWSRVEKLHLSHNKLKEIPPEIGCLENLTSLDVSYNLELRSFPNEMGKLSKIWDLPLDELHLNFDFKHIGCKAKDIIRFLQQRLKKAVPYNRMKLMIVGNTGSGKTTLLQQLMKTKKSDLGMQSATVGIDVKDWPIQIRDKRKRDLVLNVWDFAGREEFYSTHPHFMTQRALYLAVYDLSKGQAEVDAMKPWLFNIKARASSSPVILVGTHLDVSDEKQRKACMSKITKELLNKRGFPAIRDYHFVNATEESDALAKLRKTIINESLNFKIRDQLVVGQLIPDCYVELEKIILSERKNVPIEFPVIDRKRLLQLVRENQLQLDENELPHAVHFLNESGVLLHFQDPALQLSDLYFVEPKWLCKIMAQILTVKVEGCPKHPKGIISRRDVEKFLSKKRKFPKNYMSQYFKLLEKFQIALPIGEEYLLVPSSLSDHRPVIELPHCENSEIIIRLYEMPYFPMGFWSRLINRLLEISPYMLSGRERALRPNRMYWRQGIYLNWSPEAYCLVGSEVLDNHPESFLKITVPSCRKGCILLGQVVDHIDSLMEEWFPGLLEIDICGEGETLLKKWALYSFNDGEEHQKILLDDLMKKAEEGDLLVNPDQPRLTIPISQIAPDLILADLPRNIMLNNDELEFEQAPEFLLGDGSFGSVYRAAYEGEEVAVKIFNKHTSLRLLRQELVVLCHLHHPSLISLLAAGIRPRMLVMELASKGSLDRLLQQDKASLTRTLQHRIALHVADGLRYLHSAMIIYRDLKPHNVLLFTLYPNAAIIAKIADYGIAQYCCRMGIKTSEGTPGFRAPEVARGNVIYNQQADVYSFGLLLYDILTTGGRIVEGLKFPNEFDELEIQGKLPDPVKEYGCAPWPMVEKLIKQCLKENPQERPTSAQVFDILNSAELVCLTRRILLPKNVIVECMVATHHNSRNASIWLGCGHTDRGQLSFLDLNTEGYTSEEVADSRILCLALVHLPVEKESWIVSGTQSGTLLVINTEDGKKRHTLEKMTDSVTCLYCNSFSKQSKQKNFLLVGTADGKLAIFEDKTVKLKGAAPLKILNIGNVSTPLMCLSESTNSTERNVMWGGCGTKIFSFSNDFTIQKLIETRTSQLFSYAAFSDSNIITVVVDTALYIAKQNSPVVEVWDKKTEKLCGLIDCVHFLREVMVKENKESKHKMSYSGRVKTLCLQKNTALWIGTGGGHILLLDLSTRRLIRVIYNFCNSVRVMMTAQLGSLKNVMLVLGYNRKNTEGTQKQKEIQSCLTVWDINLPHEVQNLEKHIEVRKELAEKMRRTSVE
Experimental: (§1) The inhibitory activities of the compounds were measured at a 3-fold concentration gradient starting from a maximum compound concentration of […], and the values measured using the Kinase HotSpot service (Reaction Biology Corporation) are indicated by an asterisk (*).
(§2) All the experimental methods were performed as provided by the Kinase HotSpot Customer Protocol (http://www.reactionbiology.com//Kinase_Assay_Protocol).

SHP-77 = test: Inhibition of proliferation of SHP-77 cancer cells (Cell Titer-Glo); assay type: cell-based; settings: Homo sapiens, SHP77, 72 hours
How it was run: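 Cells seeded at 2,000/well and exposed 72 h to 11 concentrations of compound (3-fold dilutions, final 10.000000 down to 0.000169 μM) in DMEM or RPMI. Viability read by Cell Titer-Glo luminescence after 10 min at room temperature; GI50 calculated from luminescence.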

THP-1 cells = test: THP-1 GI50 (Table 4, cytokine secretion experiment); assay type: cell-based; settings: Homo sapiens
CLK1 = target: T2, CLK1 (Homo sapiens, UniProt P49759); test: Kinase HotSpot service (Reaction Biology Corporation), CLK1; assay type: biochemical; settings: ATP 10 uM, read-out: CLK1 IC50 (values indicated by *)
T2 construct: purchased DiscoverX Corp. (ScanMAX Kinase analysis panel, service)
T2 sequence (P49759 whole entry): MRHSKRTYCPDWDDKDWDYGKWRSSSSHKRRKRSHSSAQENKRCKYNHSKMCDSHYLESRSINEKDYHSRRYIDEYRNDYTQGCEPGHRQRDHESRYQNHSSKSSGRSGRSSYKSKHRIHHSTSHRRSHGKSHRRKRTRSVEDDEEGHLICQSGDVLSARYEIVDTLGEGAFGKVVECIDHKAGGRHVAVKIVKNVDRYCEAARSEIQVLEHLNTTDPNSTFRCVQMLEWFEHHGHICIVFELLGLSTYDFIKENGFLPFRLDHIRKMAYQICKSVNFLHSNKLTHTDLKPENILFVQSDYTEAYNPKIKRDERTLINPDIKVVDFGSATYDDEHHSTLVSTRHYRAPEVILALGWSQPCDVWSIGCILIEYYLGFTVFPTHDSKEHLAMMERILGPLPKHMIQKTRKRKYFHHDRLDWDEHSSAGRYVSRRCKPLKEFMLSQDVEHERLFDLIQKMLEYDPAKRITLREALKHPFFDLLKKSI
Experimental: as §1, §2

GI50 (THP-1 cells): 13600 nM
Structure (SMILES): COCCNc1nc(Nc2ccc(C(=O)N3CCC(N4CCOCC4)CC3)c3c2OCC3)nc2[nH]cc(C#N)c12 [Example 359, 4-((2-methoxy-ethyl)ami-no)-2-((4-(4-morpholino-piperidine-1-carbonyl)-2,3-dihydro-benzofuran-7-yl)amino)-7H-pyrrolo[2,3-d]pyrimidine-5-carbonitrile]

GI50 (THP-1 cells): 40400 nM
Structure (SMILES): COCCNc1nc(Nc2ccc(C(=O)N3CCN(C4COC4)CC3)c3c2OCCO3)nc2[nH]cc(C(F)(F)F)c12 [Example 403, (8-((4-((2-methoxyethyl)-amino)-5-(trifluoromethyl)-7H-pyrrolo[2,3-d]pyrimidin-2-yl)amino)-2,3-dihydrobenzo[b] [1,4]dioxin-5-yl) (4-(oxetan-3-yl)piperazin-1-yl)methanone]

GI50 (SHP-77): 301 to 1000 nM
IC50 (CLK1): < 100 nM
remaining binding at 1 µM (CSNK1D): 15%
Structure (SMILES): CCCNc1nc(Nc2ccc(S(=O)(=O)N3CCC(N4CCOCC4)CC3)cc2OC)nc2[nH]cc(C(F)(F)F)c12 [Example 161, N^2-(2-methoxy-4-((4-morpholinopiperidin-1-yl)sulfonyl)phenyl)-N^4-propyl-5-(trifluoromethyl)-7H-pyrrolo[2,3-d]pyrimidine-2,4-diamine]

remaining binding at 1 µM (CSNK1D): 3.9%
Structure (SMILES): C=CCNc1nc(Nc2ccc(S(=O)(=O)N3CCC(N4CCOCC4)CC3)cc2OC)nc2[nH]cc(C#N)c12 [Example 361, 4-(allylamino)-2-((2-methoxy-4-((4-morpholino-piperidin-1-yl)sulfonyl)phenyl)amino)-7H-pyrrolo[2,3-d]pyrimidine-5-carbonitrile]

IC50 (LRRK2): < 100 nM
IC50 (CLK1): < 100 nM
Structure (SMILES): COc1cc(S(=O)(=O)N2CCC(N3C[C@H]4C[C@@H]3CO4)CC2)ccc1Nc1nc(C2CC2)c2c(C(F)(F)F)c[nH]c2n1 [Example 473, N-(4-((4-((1R,4R)-2-oxa-5-azabicyclo[2.2.1]heptan-5-yl)piperidin-1-yl)sulfonyl)-2-methoxyphenyl)-4-cyclopropyl-5-(trifluoromethyl)-7H-pyrrolo[2,3-d]pyrimidin-2-amine]

Further lines, the compound ahead of its results:

Structure (SMILES): O=C(c1ccc(Nc2nc(C3CC3)c3c(C(F)(F)F)c[nH]c3n2)c2c1OCCO2)N1CCC(N2CCOCC2)CC1 [Example 228, (8-((4-cyclopropyl-5-(trifluoromethyl)-7H-pyrrolo[2,3-d]pyrimidin-2-yl)amino)-2,3-dihydrobenzo[b][1,4]dioxin-5-yl)(4-morpholinopiperidin-1-yl)methanone]
remaining binding at 1 µM (CSNK1D): 45%

Structure (SMILES): CNc1nc(Nc2ccc(S(=O)(=O)N3CCC(N4CCOCC4)CC3)cc2OC)nc2[nH]cc(C(F)(F)F)c12 [Example 157, N^2-(2-methoxy-4-((4-morpholinopiperidin-1-yl)sulfonyl)phenyl)-N^4-methyl-5-(trifluoromethyl)-7H-pyrrolo[2,3-d]pyrimidine-2,4-diamine 2,2,2-trifluoroacetate]
IC50 (LRRK2): < 100 nM
GI50 (SHP-77): 301 to 1000 nM
remaining binding at 1 µM (CSNK1D): 2.9%

Structure (SMILES): O=C(c1ccc(Nc2nc(NC3CCCC3)c3c(C(F)(F)F)c[nH]c3n2)c2c1OCCO2)N1CCN(C2COC2)CC1 [Example 414, (8-((4-(cyclopentyl-amino)-5-(trifluoromethyl)-7H-pyrrolo[2,3-d]pyrimidin-2-yl)amino)-2,3-dihydrobenzo[b] [1,4]dioxin-5-yl) (4-(oxetan-3-yl)piperazin-1-yl)methanone]
GI50 (THP-1 cells): 4160 nM

Structure (SMILES): CCNc1nc(Nc2ccc(S(=O)(=O)N3CCC(N4CCOCC4)CC3)cc2OC)nc2[nH]cc(C(F)(F)F)c12 [Example 158, N^4-ethyl-N^2-(2-methoxy-4-((4-morpholinopiperidin-1-yl)sulfonyl)phenyl)-5-(trifluoromethyl)-7H-pyrrolo[2,3-d]pyrimidine-2,4-diamine 2,2,2-trifluoroacetate]
GI50 (SHP-77): 51 to 100 nM
remaining binding at 1 µM (CSNK1D): 5.3%

Structure (SMILES): CNc1nc(Nc2ccc(P3(=O)CCN(C4CC4)CC3)cc2OC)nc2[nH]cc(C(F)(F)F)c12 [Example 411, 1-cyclopropyl-4-(3-methoxy-4-((4-(methylamino)-5-(trifluoromethyl)-7H-pyrrolo[2,3-d]pyrimidin-2-yl)amino)phenyl)-1,4-azaphosphinane-4-oxide]
remaining binding at 1 µM (CSNK1D): 14%

Structure (SMILES): CNc1nc(Nc2ccc(C(=O)N3CCC(N4CCOCC4)CC3)c3c2OCCO3)nc2[nH]cc(C(F)(F)F)c12 [Example 238, (8-((4-(methylamino)-5-(trifluoromethyl)-7H-pyrrolo[2,3-d]pyrimidin-2-yl)amino)-2,3-dihydrobenzo[b][1,4]dioxin-5-yl)(4-morpholinopiperidin-1-yl)methanone]
remaining binding at 1 µM (CSNK1D): 16%
